Reference: patent publication US20240254179A1, “Targeting Nuclear Speckles and DNA Speckle Association” (THE TRUSTEES OF THE UNIVERSITY OF PENNSYLVANIA, priority 2023, published 2024)

Columns and labels:
HeLa cells = assay type: cell-based
[1] = test system: patient-derived mouse xenograft tumors; test: Speckle signature versus PT2399 sensitivity of patient-derived mouse xenograft ccRCC tumors; assay type: in vivo
Protocol: Methods for determining speckle signature and TCGA survival analysis. Four-hundred and forty-six protein genes annotated as “Enhanced”, “Supported”, or “Approved” for subcellular localization within nuclear speckles were identified in The Human Protein Atlas and their upper-quartile normalized RNA expression was extracted from the 30 PanCan TCGA projects that had greater than 50 samples. Principal Component Analysis was then performed on these 446 speckle protein genes. In doing so, each speckle protein gene was assigned a weight (called rotation in the analysis) that was used in the analysis to separate tumor sample along the first Principal Component (PC1). The absolute value of a speckle protein gene PC1 weight thus estimates the contribution of each speckle protein gene to patient variation and the PC1 weight sign, positive or negative, reflects genes that have opposite expression patterns to one another. To compare speckle protein gene expression contributions to patient variation between cancer types, the pairwise Pearson's correlation coefficients of the speckle protein PC1 weights were used. […] With collected ccRCC samples and published drug response studies, speckle scores were calculated using the above formula. […] Then differences in drug responses were calculated using a Fisher's exact test (FIG. 53) or Kaplan Meier statistics (FIG. 54).

ccRCC = ccRCC clinical trial, overall survival by speckle signature, nivolumab versus everolimus; assay type: in vivo, human; conditions: nivolumab arm versus everolimus arm
Source text: Without wishing to be bound by theory, it is envisioned that having both RNA- and imaging-based methods for measuring speckle phenotypes will assist in the development of cancer- and patient-specific treatment strategies. As a proof-of-concept for a potential use of nuclear speckle phenotyping, a series of studies was undertaken in which speckle signature was correlated with tumor/patient drug response in available data from a human clinical trial and patient-derived mouse xenograft studies.
Thus, contrasting with HIF-2a inhibition, PD1 inhibition may have a greater impact in individuals with Signature II tumors.
Methods for determining speckle signature and TCGA survival analysis. Four-hundred and forty-six protein genes annotated as “Enhanced”, “Supported”, or “Approved” for subcellular localization within nuclear speckles were identified in The Human Protein Atlas and their upper-quartile normalized RNA expression was extracted from the 30 PanCan TCGA projects that had greater than 50 samples. Principal Component Analysis was then performed on these 446 speckle protein genes. In doing so, each speckle protein gene was assigned a weight (called rotation in the analysis) that was used in the analysis to separate tumor sample along the first Principal Component (PC1). The absolute value of a speckle protein gene PC1 weight thus estimates the contribution of each speckle protein gene to patient variation and the PC1 weight sign, positive or negative, reflects genes that have opposite expression patterns to one another. To compare speckle protein gene expression contributions to patient variation between cancer types, the pairwise Pearson's correlation coefficients of the speckle protein PC1 weights were used. In order to obtain a set of speckle protein genes that consistently contributed to patient variation in many cancer types, the rotation signs were flipped so that the speckle protein gene, SON, was always assigned a negative weight. […] Speckle score was then used to separate samples into groups for Kaplan Meier and gene expression analysis between the two groups. With collected ccRCC samples and published drug response studies, speckle scores were calculated using the above formula. In drug-response data (related to FIG. 52), samples with positive speckle scores were considered speckle Signature I and samples with negative speckle scores were considered speckle Signature II. Then differences in drug responses were calculated using a Fisher's exact test (FIG. 53) or Kaplan Meier statistics (FIG. 54).

Compound: [Cl-].[Cl-].[Co+2] [CoCl2]
- speckle association of the CCND1 gene locus (HeLa cells): increased speckle association of the CCND1 gene locus

Compound: N#Cc1cc(F)cc(Oc2ccc(S(=O)(=O)C(F)F)c3c2CC(F)(F)[C@H]3O)c1 [PT2399]
- fraction of Signature II tumors sensitive to PT2399 ([1]; xenograft tumors with negative speckle score (Signature II)): ~30%
- fraction of Signature I tumors sensitive to PT2399 ([1]; xenograft tumors with positive speckle score (Signature I)): ~75%

Compound: CO[C@H]1C[C@@H]2CC[C@@H](C)[C@@](O)(O2)C(=O)C(=O)N2CCCC[C@H]2C(=O)O[C@H]([C@H](C)C[C@@H]2CC[C@@H](OCCO)[C@H](OC)C2)CC(=O)[C@H](C)/C=C(\C)[C@@H](O)[C@@H](OC)C(=O)[C@H](C)C[C@H](C)/C=C/C=C/C=C/1C [everolimus]
- overall survival, Signature I patients (ccRCC): did not differ in overall survival between the two treatment groups
- overall survival probability, Signature II patients (ccRCC): higher overall survival probability when treated with nivolumab compared to everolimus

Compound: nivolumab
- overall survival, Signature I patients (ccRCC): did not differ in overall survival between the two treatment groups
- overall survival probability, Signature II patients (ccRCC): higher overall survival probability when treated with nivolumab compared to everolimus
